Test system: SEM cells
Assay: cell viability relative to DMSO control; higher = less cytotoxic
Settings: 48 h
Outline: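 Viability is a per-plate percentage relative to DMSO wells, with cell-free wells as background. CellTiter-Glo One luminescence was read after 48 h at 37°C on 1536-well plates (5 μl) of NOMO1 or SEM (500 cells/well) or P12-Ichikawa (1000 cells/well) leukemia cells. The cells had been adapted for at least four passages in each medium and pin-dosed with library compounds in DMSO from 47 μM to 0.79 nM in 11 threefold steps.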

[1] = HPLM + 10% dialyzed FBS, 0.000781 µM
[2] = HPLM + 10% dialyzed FBS, 0.00234 µM
[3] = HPLM + 10% dialyzed FBS, 0.00702 µM
[4] = HPLM + 10% dialyzed FBS, 0.0211 µM
[5] = HPLM + 10% dialyzed FBS, 0.0632 µM
[6] = HPLM + 10% dialyzed FBS, 0.19 µM
[7] = HPLM + 10% dialyzed FBS, 0.569 µM
[8] = HPLM + 10% dialyzed FBS, 1.71 µM
[9] = HPLM + 10% dialyzed FBS, 5.12 µM
[10] = HPLM + 10% dialyzed FBS, 15.4 µM
[11] = HPLM + 10% dialyzed FBS, 46.1 µM
[12] = RPMI 5 mM glucose + 10% FBS, 0.000781 µM
[13] = RPMI 5 mM glucose + 10% FBS, 0.00234 µM
[14] = RPMI 5 mM glucose + 10% FBS, 0.00702 µM
[15] = RPMI 5 mM glucose + 10% FBS, 0.0211 µM
[16] = RPMI 5 mM glucose + 10% FBS, 0.0632 µM
[17] = RPMI 5 mM glucose + 10% FBS, 0.19 µM
[18] = RPMI 5 mM glucose + 10% FBS, 0.569 µM
[19] = RPMI 5 mM glucose + 10% FBS, 1.71 µM
[20] = RPMI 5 mM glucose + 10% FBS, 5.12 µM
[21] = RPMI 5 mM glucose + 10% FBS, 15.4 µM
[22] = RPMI 5 mM glucose + 10% FBS, 46.1 µM
[23] = RPMI 5 mM glucose + 10% dialyzed FBS, 0.000781 µM
[24] = RPMI 5 mM glucose + 10% dialyzed FBS, 0.00234 µM
[25] = RPMI 5 mM glucose + 10% dialyzed FBS, 0.00702 µM
[26] = RPMI 5 mM glucose + 10% dialyzed FBS, 0.0211 µM
[27] = RPMI 5 mM glucose + 10% dialyzed FBS, 0.0632 µM
[28] = RPMI 5 mM glucose + 10% dialyzed FBS, 0.19 µM
[29] = RPMI 5 mM glucose + 10% dialyzed FBS, 0.569 µM
[30] = RPMI 5 mM glucose + 10% dialyzed FBS, 1.71 µM
[31] = RPMI 5 mM glucose + 10% dialyzed FBS, 5.12 µM
[32] = RPMI 5 mM glucose + 10% dialyzed FBS, 15.4 µM
[33] = RPMI 5 mM glucose + 10% dialyzed FBS, 46.1 µM

SMILES	cell viability [1]	cell viability [2]	cell viability [3]	cell viability [4]	cell viability [5]	cell viability [6]	cell viability [7]	cell viability [8]	cell viability [9]	cell viability [10]	cell viability [11]	cell viability [12]	cell viability [13]	cell viability [14]	cell viability [15]	cell viability [16]	cell viability [17]	cell viability [18]	cell viability [19]	cell viability [20]	cell viability [21]	cell viability [22]	cell viability [23]	cell viability [24]	cell viability [25]	cell viability [26]	cell viability [27]	cell viability [28]	cell viability [29]	cell viability [30]	cell viability [31]	cell viability [32]	cell viability [33]
O=C(CCc1ccc(O)cc1)c1c(O)cc(O)cc1O	74%	79.7%	92%	95.5%	89.1%	95.9%	115%	94.5%	57%	107%	100%	80.8%	102%	102%	85.6%	86.3%	97.7%	105%	99.4%	40.2%	105%	106%	96.5%	90.9%	89.7%	90%	83.6%	105%	88.1%	91%	62.3%	102%	102%
CC(NC(C)(C)C)C(=O)c1cccc(Cl)c1 (configuration not stated)	94.9%	120%	102%	100%	109%	104%	108%	64.6%	127%	46%	103%	106%	123%	117%	108%	114%	119%	127%	73.2%	125%	23.1%	98.9%	99.9%	128%	123%	112%	117%	140%	139%	71.9%	135%	35.7%	126%
NC(=O)[C@H]1CCS[C@@H]2C[C@]3(CCCN3C(=O)Cc3ccc(NC(=O)COc4ccc(Cl)cc4Cl)cc3)C(=O)N12	96.1%	101%	94%	107%	104%	103%	97.7%	61.4%	38%	28.2%	31.5%	105%	106%	112%	107%	121%	103%	85.7%	18.4%	16.2%	19.6%	10.2%	115%	102%	123%	120%	113%	114%	117%	66.6%	35.1%	20.8%	19.9%
O=C/1NC(=O)C(=C1C2=CN=C3C=CC=C[N]23)/C4=C[N]5CCN(CC6=C5C4=CC=C6)C(=O)N7CCOCC7	111%	104%	62.9%	14.5%	14.7%	14.1%	13.7%	11.3%	10.6%	9.94%	10.3%	96.7%	106%	65.2%	17.9%	14.7%	16.1%	15%	12.4%	13.8%	13.1%	12.8%	101%	102%	63.8%	22.2%	17.1%	13.1%	16.3%	14%	14.6%	11.1%	10.6%
CN(C)c1ccc2nc3ccc(N(C)C)cc3[s+]c2c1	89.6%	51.3%	99.7%	104%	104%	117%	114%	102%	97%	18.6%	5.42%	82.6%	44.9%	89.8%	97.6%	91.1%	111%	79.7%	85.7%	87.2%	73.7%	6.3%	86.7%	38.2%	80%	89.2%	92.7%	91.2%	90.1%	91.1%	78.7%	46.8%	6.19%
[O-]C(=O)C/1=N/C(=O)NC(=O)N1	95.8%	99.2%	93.4%	111%	85.1%	20.6%	94.8%	99.8%	100%	91.6%	84.3%	93.7%	99.6%	95.6%	93.6%	87.4%	34.2%	90.8%	83.7%	100%	88.1%	83.7%	97.1%	100%	101%	106%	100%	34.7%	96.8%	89.8%	104%	88.7%	91.8%
CC[N+](CC)(CC)CCOc1cccc(OCC[N+](CC)(CC)CC)c1OCC[N+](CC)(CC)CC												134%	118%	124%	110%	123%	131%	116%	119%	126%	123%	111%	117%	137%	121%	112%	144%	144%	122%	115%	128%	122%	128%
Cc1cc(O)c2c(c1)C(=O)c1cccc(O)c1C2=O	99.4%	121%	126%	100%	122%	133%	135%	135%	116%	70.5%	71.6%												117%	111%	124%	109%	137%	140%	134%	110%	123%	81.2%	64.7%
